According to US12715851B2, “4′-substituted analogues of fisetin and their use in the treatment of cancer” (Stellenbosch University, priority 2020, dated 2026):
Entries after “also recorded” stand apart in the source; their conditions may differ.

Columns and labels:
[1] = test system: A549 cells; assay: Western blot of signalling, cell cycle and apoptosis markers; type: cell-based, human; conditions: IC50 concentration and 20 μM
Excerpt: (§1) Similarly, in H1299 cells analogue 3a induced a 11.7 to 14.9% cell death (FIG. 4D right) compared to 3.8% in control cells. Analogue 3c (FIG. 4E right) and analogue 3e (FIG. 4F right) induced cell death of 8.2 to 15.1% and 8.8 to 16.6% respectively. For western blot experiments, two concentrations were used, i.e. the IC50 concentration and the next higher concentration utilized for cell proliferation for each cell line.
The expression of pro-oncogenic signalling molecules, which are involved in proliferation and survival of cancer cells, were evaluated.
The effect of the Fisetin analogues on molecular markers of apoptosis was assessed.

[2] = test system: H1299 human lung cancer cells; assay: Cell cycle distribution, propidium iodide flow cytometry; type: cell-based; conditions: 48 h; for G2/M phase arrest: H1299
Protocol: (§2) To examine the effect of Fisetin analogues on cell cycle regulation, cells were treated with different concentrations of Fisetin analogues (5, 10 & 20 μM) for 48 h, then stained with propidium iodide and subjected to flow cytometry. All three of the tested Fisetin analogues induced G2/M phase cell cycle arrest in A549 (FIGS. 5A-5C) and H1299 human lung cancer cells (FIGS. 5D-5F).

[3] = test system: A549 cells; assay: Trypan blue cell exclusion assay, cell proliferation and death; type: cell-based; conditions: Homo sapiens, A549, 48 h, read-out: IC50 concentration
Protocol: (§3) To evaluate the effect of Fisetin analogues 3a, 3c and 3e on cell proliferation and death of human lung cancer cells, trypan blue cell exclusion assays were performed. A549 and H1299 cancer cells were treated with different concentrations of three selected Fisetin analogues for 48 h. The Fisetin analogues decreased the viability of cells and caused cell death in both the cell lines in a concentration dependent fashion. A549 and H1299 cells were treated with 5, 10 and 20 μM of Fisetin analogues for 48 h. All three analogues decreased cell proliferation and induced cell death.

[4] = test system: H1299 lung cancer cells; assay: as above; type: cell-based; conditions: Homo sapiens, NCI-H1299, H1299, 48 h, read-out: IC50 concentration
Protocol: as §3

[5] = test system: H1299 cancer cells; assay: Apoptosis assay; type: cell-based, human; conditions: 48 h
Excerpt: [Worded in the source for another cell line; used here, by the source, with some conditions changed.] (§4) In A549, analogue 3a induced 8.2 and 11.2% apoptosis, analogue 3c induced 13.4 and 17.2% apoptosis, and analogue 3e induced 10.6 to 19.5% apoptosis compared to 4.7% in control cells (FIG. 6A).

[6] = test system: A549; assay: Apoptosis assay; type: cell-based, human; conditions: 48 h, control cells 4.7%
Excerpt: as §4

[7] = test system: A549; assay: Cell cycle distribution, propidium iodide flow cytometry; type: cell-based, human; conditions: 10 & 20 μM, 48 h
Protocol: as §2

[8] = test system: H1299 cells; assay: Western blot of signalling, cell cycle and apoptosis markers; type: cell-based, human
Excerpt: as §1
In H1299 cells (FIG. 4H), the higher concentrations of all three Fisetin analogues decreased the expression of pErk1/2. […]
The decreased expression of these proteins explains the decreased cell proliferation in both A549 and H1299 cells. […] Consistent with A549 data, all three the Fisetin analogues decreased the expression of anti-apoptotic protein Bcl-2 at both the concentrations. In H1299 cells, all the analogues increased cleaved Caspase-3 compared to control untreated cells. Thus, modulation of apoptosis regulatory proteins has caused apoptosis in both A549 and H1299 cells by the tested Fisetin analogues.

[9] = test system: H1299 lung cancer cells; assay: Cytotoxicity / cell viability of H1299 cells; type: cell-based, human; conditions: 4′-Br analogues
Excerpt: Analogues were also synthesised to all contain Br in the B-ring 4′-position, and in which the A-ring substitution pattern alone was varied. […] Based on the strong activity of analogue 3c, it was selected together with analogues 3a and 3e for further mechanistic evaluation in lung cancer cells.

[10] = test system: A549 lung cancer cell line; assay: MTT cell proliferation assay, cytotoxicity after 48 h treatment; type: cell-based, human; conditions: for variation in cytotoxicity with A-ring substitution: A549, 4′-Br analogues; for activity against lung cancer cell lines compared with the parent Fisetin: A549 and/or H1299
Protocol: These 4′-substituted Fisetin analogues were initially screened for cytotoxicity against the A549 lung cancer cell line following a 48 h treatment period. Cytotoxicity IC50's were quantified using the MTT cell proliferation assay. The compounds were not found to interfere with the assay by causing an increase in background absorbance, no correlation was found between the lipophilicity and cytotoxicity at this position, and the substituent size was also not found to be important.

[11] = cited from earlier work

## O=c1c(O)c(-c2ccc(Br)cc2)oc2ccccc12 [analogue 3a, 4′-Bromo-3-hydroxyflavone]
[1]
  cleaved caspase-3: increased the cleavage of caspase-3 significantly
  expression of p21: increased the expression of p21 marginally at both the concentrations
  expression of phospho Cdc-2: slightly decreased the phospho form of Cdc-2 at higher concentration
  expression of phospho-Erk1/2: decreased the expression of phospho-Erk1/2 significantly at both the concentrations
  expression of pro-apoptotic protein Bax: slightly increased the expression of pro-apoptotic protein Bax
  total Stat-3 expression: not affected
  total form of Akt: slightly downregulated
  total form of Erk1/2: not affected
[2]; 10 & 20 μM
  G2/M phase arrest: induced G2/M phase arrest in both the cell lines significantly
[3]
  IC50: 11.9 µM
[4]
  IC50: 4.5 µM
[5]; IC50 concentration
  apoptosis: 13.2%
[5]; higher concentration 10 μM
  apoptosis: 17.8%
[6]; IC50 concentration
  apoptosis: 8.2%
[6]; higher concentration 20 μM
  apoptosis: 11.2%
[7]
  G2/M phase arrest: induced G2/M phase arrest in both the cell lines significantly
[8]; IC50 concentration and 10 μM
  Phospho-Cdc-2 expression: marginally decreased
  Total Cdc-2: marginally affected by higher concentration
  expression of Bax: slightly higher
  expression of phospho Akt: did not affect the expression of phospho and total Akt at both the concentrations
  expression of phospho-EGFR: lower concentration of analogue 3a did not affect the expression of both phospho and total EGFR; also recorded: higher concentration of analogue 3a significantly decreased the expression of both phospho and total EGFR
  expression of total Akt: did not affect the expression of phospho and total Akt at both the concentrations
  expression of total EGFR: lower concentration of analogue 3a did not affect the expression of both phospho and total EGFR; also recorded: higher concentration of analogue 3a significantly decreased the expression of both phospho and total EGFR

## COCOc1ccc2c(=O)c(O)c(-c3ccc(Br)cc3)oc2c1 [analogue 3b, 4′-Bromo-3-hydroxy-7-methoxymethoxyflavone]
[9]
  variation in cytotoxicity with A-ring substitution: little variation in cytotoxicity
[10]
  variation in cytotoxicity with A-ring substitution: little variation in cytotoxicity

## COCOc1ccc2oc(-c3ccc(Br)cc3)c(O)c(=O)c2c1 [analogue 3d, 4′-Bromo-3-hydroxy-6-methoxymethoxyflavone]
[9]
  variation in cytotoxicity with A-ring substitution: little variation in cytotoxicity
[10]
  variation in cytotoxicity with A-ring substitution: little variation in cytotoxicity

## O=c1c(O)c(-c2ccc(Br)cc2)oc2ccc(O)cc12 [analogue 3e, 4′-Bromo-3,6-dihydroxyflavone]
[9]
  variation in cytotoxicity with A-ring substitution: little variation in cytotoxicity
[1]
  cleaved caspase-3: both the concentrations of analogue 3e increased the cleaved caspase-3 marginally
  expression of p21: increased the p21 expression to a much higher level at both the concentrations
  expression of phospho Cdc-2: IC50 concentration decreased the expression to some extent; also recorded: the higher concentrations decreased the phospho-Cdc-2 expression significantly
  expression of phospho-Erk1/2: decreased the expression of phospho-Erk1/2 significantly at both the concentrations
  expression of phospho-Stat-3: completely abolished the expression of p-Stat-3
  expression of pro-apoptotic protein Bax: increased the expression of Bax with much higher potential
  total Stat-3 expression: significantly decreased the expression of total Stat-3
  total form of Akt: decreased the expression of total Akt at both the concentrations
  total form of Erk1/2: not affected
[2]; 20 μM, cell line not given
  S-phase arrest: induced S-phase arrest
[2]; 5 μM
  G2/M phase arrest: induced G2/M phase arrest
[2]; 10 & 20 μM
  G2/M phase arrest: induced G2/M phase arrest in both the cell lines significantly
[10]
  variation in cytotoxicity with A-ring substitution: little variation in cytotoxicity
[3]
  IC50: 12.3 µM
[4]
  IC50: 3.1 µM
[5]; IC50 concentration
  apoptosis: 12.1%
[5]; higher concentration 10 μM
  apoptosis: 19.5%
[6]; IC50 concentration
  apoptosis: 10.6%
[6]; higher concentration 20 μM
  apoptosis: 19.5%
[7]
  G2/M phase arrest: induced G2/M phase arrest in both the cell lines significantly
[8]; IC50 concentration and 10 μM
  Phospho-Cdc-2 expression: both concentrations of analogue 3e decreased the expression of phospho-Cdc-2
  Total Cdc-2: no effect
  expression of Bax: increased the expression of pro-apoptotic protein Bax
  expression of phospho Akt: significantly decrease the phospho Akt
  expression of phospho-EGFR: significantly decreased the expression of phospho-EGFR
  expression of total Akt: did not affect the total Akt
  expression of total EGFR: did not affect the expression levels of total EGFR
  expression of total Erk1/2: decreased the expression of total Erk1/2 significantly
[8]; higher concentration (10 μM)
  expression of total Stat-3: decreased the expression of total Stat-3 at higher concentrations

## O=c1c(O)c(-c2ccc(Br)cc2)oc2cccc(O)c12 [analogue 3f, 4′-Bromo-3,5-dihydroxyflavone]
[9]
  variation in cytotoxicity with A-ring substitution: little variation in cytotoxicity
[10]
  variation in cytotoxicity with A-ring substitution: little variation in cytotoxicity

## O=c1c(O)c(-c2ccc(Cl)cc2)oc2cc(O)ccc12 [analogue 3g, 4′-Chloro-3,7-dihydroxyflavone]
[10]; A549, MTT, 48 h
  cytotoxicity, in words: particularly active
[10]
  activity against lung cancer cell lines compared with the parent Fisetin: substantially more active

## COc1ccc(-c2oc3cc(O)ccc3c(=O)c2O)cc1 [analogue 3m, 4′-Methoxy-3,7-dihydroxyflavone]
[10]; A549, MTT, 48 h
  activity compared to that predicted by the para-Hammett constant: enhanced activity compared to that predicted by the para-Hammett constant

## O=c1c(O)c(-c2ccc(C(F)(F)F)cc2)oc2cc(O)ccc12 [analogue 3n, 4′-Trifluoromethyl-3,7-dihydroxyflavone]
[10]; A549, MTT, 48 h
  cytotoxicity, in words: particularly active
[10]
  activity against lung cancer cell lines compared with the parent Fisetin: substantially more active

## CS(=O)(=O)c1ccc(-c2oc3cc(O)ccc3c(=O)c2O)cc1 [analogue 3p, 4′-Methylsulfone-3,7-dihydroxyflavone]
[10]; A549, MTT, 48 h
  cytotoxicity, in words: particularly active
[10]
  activity against lung cancer cell lines compared with the parent Fisetin: substantially more active

## O=c1c(O)c(-c2ccc(O)c(O)c2)oc2cc(O)cc(O)c12 [quercetin]
[11]
  pKa of the 4′-hydroxyl group: ~ 9.4
[11]; most acidic position
  pKa of the 7-hydroxyl group: ~ 7.3
